Results taken from patent US20110009628A1, “Compounds and Compositions for Modulating Lipid Levels and Methods of Preparing Same” (priority 2009, published 2011).
Where a name gives a salt, the structure may show the parent alone. Marks after values point to notes of the source that are not given here.

What was measured:
[1] = test system: LDLR mRNA expression in HepG2 cells; assay: LDLR mRNA expression in HepG2 cells, Compounds 162 and 163, real-time RT-PCR (Example 13); format: cell-based, human; details: FIGS. 6A and 6B
Protocol: In FIG. 6A HepG2 cells were exposed to Compounds 162 and 163 at the indicated concentrations (x-axis) for 24 h and plotted against normalized LDLR mRNA levels (fold of control in absence of compound). In FIG. 6B, HepG2 cells were treated with 20 μM of each compound for the indicted times (x-axis) and plotted against normalized LDLR mRNA levels (fold of control at 24 h).
The time- and dose-dependent effects of the enantiomers of Compound 127 (Compounds 162 and 163) on LDLR mRNA expression were examined using quantitative real-time RT-PCR assays (FIGS. 6A and 6B). HepG2 cells were treated with Compound 162 and Compound 163 at indicated concentrations for various times. Total RNA was isolated and […] was used to generate cDNA in a reaction containing random primers and M-MLV at 37° C. for 1 h in a volume of 25 μL. Real-time PCR was performed on the cDNA using MCEP REALPLEX 2 SYSTEM (Eppendorf) and Universal MasterMix (Applied Biosystems). Human LDLR and GAPDH Pre-Developed TaqMan Assay Reagents (Applied Biosystems) were used to assess the levels of mRNA expressions in HepG2. The levels of LDLR mRNA were normalized to that of GAPDH. Each RNA samples was assayed in triplicate. The fold activity was calculated by dividing mRNA abundance in compound treated cells with that of control.

[2] = test system: PCSK9 protein expression in HepG2 cells; assay: Western blot of PCSK9 protein in HepG2 cells, Compounds 162 and 163; format: cell-based, human; details: 20 μM, time-dependent, FIG. 7
Protocol: FIG. 7 is a Western blot analysis of LDLR and PCSK9 expression in HepG2 cells. HepG2 cells seeded in 12-well culture plates were cultured in 0.5% FBS MEM overnight. Compounds 162 and 163 at 20 μM were added to cells for the indicated times. Untreated and treated cells were harvested at the same indicated time points. Total cell lysates were isolated and 50 μg per sample was analyzed for LDLR and PCSK9 protein abundance by western blotting. The membrane was reprobed with anti-actin antibody to examine the equal loading of cell lysates.
Recent studies have identified the liver secreted serine protease PCSK9 (proprotein convertase subtilisin type 9) as a natural inhibitor of LDLR protein expression that degrades hepatic LDLR protein, thus increasing circulating LDL-C levels.

[3] = test system: Hyperlipidemic Hamsters; assay: Serum lipids and biochemistry in hyperlipidemic hamsters on high fat high cholesterol diet, 2 weeks oral Compound 162; format: in vivo, Golden Syrian Hamsters; details: for ALT / AST / BUN / Bil-T / Creatinine / Glucose / HDL-C / TC / TG: serum, HFHC feeding, n = 10
Protocol: Male hamsters were fed a cholesterol-enriched diet for 14 days before the daily oral feeding of Compound 162 at 30, 60, and 100 mg/kg, or an equal volume of vehicle for 2-weeks. Serum samples were collected after 2 weeks of treatment and analyzed for TC, TG, and HDL-C. The data shown are mean±SEM of 10 hamsters per group (* p<0.05, ** p<0.01 compared to untreated control group).
Male Golden Syrian Hamsters were used as an animal model to examine the in vivo effects of Compound 162 in plasma lipid levels. In one experiment, 40 male hamsters under a high fat and high cholesterol diet were divided into 4 groups of 10 hamsters per group. Group 1 was given vehicle only and groups 2-4 were given Compound 162 at 30, 60, and 100 mg/kg/day by an orogastric tube for 2 weeks. At the end of treatment, hamsters were sacrificed and blood and sera were collected to measure lipid levels and several critical parameters of liver function and kidney function.

[4] = test system: liver LDLR mRNA; assay: Liver LDLR mRNA in treated hamsters, quantitative real-time RT-PCR; format: in vivo, hamster; details: 100 mg/kg, 2 weeks, 10 animals per group, p<0.001
Protocol: To directly correlate the LDL-C and VLDL-C lowering effects of Compound 162 with its ability to upregulate hepatic LDLR expression and down-regulation of PCSK9, at the end of treatment, animals from vehicle and Compound 162 100 mg/kg treated groups were euthanized and levels of liver LDLR and PCSK9 mRNA were individually assessed by quantitative real-time RT-PCR using hamster specific probes. The results represent mean±SEM of 10 animals per group. The liver expression of LDLR mRNA was increased 1.7-fold over control by Compound 162 treatment (p<0.001). […] Thus, these in vivo data confirmed the in vitro effects of Compound 162 in upregulating LDLR mRNA while inhibiting PCSK9 mRNA expressions.

[5] = test system: cholesterol 7α-hydroxylase (CYP7A) mRNA; assay: Liver cholesterol 7α-hydroxylase (CYP7A) mRNA in treated hamsters, real-time PCR; format: in vivo, hamster; details: 100 mg/kg, 2 weeks, p<0.01
Source text: The conversion of cholesterol to bile acids by the liver and their subsequent excretion in the feces represent a major route for the elimination of sterol from the body. The cholesterol 7α-hydroxylase is the first and rate-limiting enzyme in the bile acid biosynthetic pathway. The measurement of the mRNA expression level of cholesterol 7α-hydroxylase (CYP7A) is widely used as a means to monitor bile acid synthesis in liver. To assess the effect of Compound 162 on liver bile acid synthesis, the mRNA levels of CYP7A were measured in vehicle and liver samples from hamsters treated with 100 mg/kg Compound 162 by real-time PCR as described above.

[6] = 100 mg/kg, 2 weeks, hamsters, FIG. 8

Compound: COc1cc2c(cc1OC)C1Cc3ccc(OC)c(OS(=O)(=O)c4cccc(F)c4)c3CN1CC2 (single isomer, unassigned) [Compound 162, 2,3,10-Trimethoxy-5,6,7,8,13,13a-hexahydroisoquinolino[2,1-b]isoquinolin-9-yl 3-fluorobenzenesulfonate phosphate Salt (Enantiomer having positive optical rotation)]
- LDLR mRNA expression [1]: upregulate LDLR mRNA expression
- LDLR mRNA expression, comparison of the enantiomers [1]: more active than Compound 163
- PCSK9 cellular levels [2]: greatly decreased
- increase of HDL-C [3, 6]: 21%
- reduction of serum TC [3, 6]: 46%
- reduction of serum TG [3, 6]: 63.7%
- VLDL-C, LDL-C in pooled serum (HPLC lipoprotein profile) ([3]; 30, 60, 100 mg/kg/day, hamsters fed the HFHC diet, FIGS. 9A and 9B): dose-dependently lowered
- Blood glucose level ([3]; hamsters, 2 weeks): not changed
- kidney function ([3]; hamsters, 2 weeks): improved
- serum levels of AST and ALT versus control group ([3]; hamsters, 2 weeks): statistically lower
- ALT ([3]; 30 mkg, 2 weeks): 441 ± 401 IU/L
- AST ([3]; 30 mkg, 2 weeks): 202.0 ± 135 IU/L
- BUN ([3]; 30 mkg, 2 weeks): 4.5 ± 0.9 mmol/L
- Bil-T ([3]; 30 mkg, 2 weeks): 0.6 ± 1.0 µmol/L
- Creatinine ([3]; 30 mkg, 2 weeks): 17.8 ± 6.1* umol/L
- Glucose ([3]; 30 mkg, 2 weeks): 3.8 ± 0.8 mmol/L
- HDL-C ([3]; 30 mkg, 2 weeks): 3.9 ± 0.5 mmol/L
- TC ([3]; 30 mkg, 2 weeks): 19.0 ± 10.1 mmol/L
- TG ([3]; 30 mkg, 2 weeks): 9.4 ± 9.2 mmol/L
- ALT ([3]; 60 mkg, 2 weeks): 353 ± 250 IU/L
- AST ([3]; 60 mkg, 2 weeks): 151.5 ± 61 IU/L
- BUN ([3]; 60 mkg, 2 weeks): 5.0 ± 0.7 mmol/L
- Bil-T ([3]; 60 mkg, 2 weeks): 0.3 ± 0.3* umol/L
- Creatinine ([3]; 60 mkg, 2 weeks): 15.7 ± 4.2** umol/L
- Glucose ([3]; 60 mkg, 2 weeks): 5.0 ± 1.0 mmol/L
- HDL-C ([3]; 60 mkg, 2 weeks): 3.9 ± 0.5 mmol/L
- TC ([3]; 60 mkg, 2 weeks): 16.9 ± 8.7* mmol/L
- TG ([3]; 60 mkg, 2 weeks): 7.6 ± 8.1* mmol/L
- ALT ([3]; 100 mkg, 2 weeks): 376 ± 262 IU/L
- AST ([3]; 100 mkg, 2 weeks): 150.4 ± 42 IU/L
- BUN ([3]; 100 mkg, 2 weeks): 4.8 ± 0.7 mmol/L
- Bil-T ([3]; 100 mkg, 2 weeks): 0.2 ± 0.2* umol/L
- Creatinine ([3]; 100 mkg, 2 weeks): 15.3 ± 3.2** umol/L
- Glucose ([3]; 100 mkg, 2 weeks): 5.0 ± 1.3 mmol/L
- HDL-C ([3]; 100 mkg, 2 weeks): 4.2 ± 0.5** mmol/L
- TC ([3]; 100 mkg, 2 weeks): 16.4 ± 5.8*** mmol/L
- TG ([3]; 100 mkg, 2 weeks): 6.7 ± 5.2* mmol/L
- liver expression of LDLR mRNA [4]: 1.7 fold over control
- CPY7A mRNA expression in liver versus vehicle control [5]: 2.7 fold
